Assay results from the supplement of paper PMC10307832.

Key:
Assay in all cases: relative viability (nuclei count vs DMSO), 5 days (fraction); higher = more cells survive
[1] = compound: C1CNCCC1C2=CC(=NN2)C3=CC=NC=C3 + COc1cc2c(Oc3ccc(NC(=O)C4(C(=O)Nc5ccc(F)cc5)CC4)cc3F)ccnc2cc1OCCCN1CCOCC1 [Foretinib] (partner 0.25 µM)
Procedure, shortened: (§1)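 After 5 days of treatment, lung cancer cells in 1536-well plates were fixed and stained in a single step (final 0.05% Triton X-100, 1% formaldehyde, 1 ug/ml Hoechst) and their nuclei counted on 4× images. Treatment had been applied by pin tool the day after seeding as one drug alone or as a fixed anchor-drug dose with five library-drug doses (not always all listed) in √10 steps. Relative viability is the nuclei count of treated wells divided by that of vehicle wells, and values are medians of duplicate plates.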

[2] = compound: C[C@@H](N)c1ccc(C(=O)Nc2ccnc3[nH]ccc23)cc1 + COc1cc2c(Oc3ccc(NC(=O)C4(C(=O)Nc5ccc(F)cc5)CC4)cc3F)ccnc2cc1OCCCN1CCOCC1 [Foretinib] (partner 0.25 µM)
Procedure, shortened: as §1

Tanzisertib + Bortezomib = compound: O[C@H]1CC[C@H](Nc2ncc3nc(Nc4c(F)cc(F)cc4F)n([C@H]4CCOC4)c3n2)CC1 [Tanzisertib] + CC(C)C[C@H](NC(=O)[C@H](Cc1ccccc1)NC(=O)c1cnccn1)B(O)O [Bortezomib] (partner 0.002 µM)
Procedure, shortened: as §1

Tanzisertib + Luminespib = compound: O[C@H]1CC[C@H](Nc2ncc3nc(Nc4c(F)cc(F)cc4F)n([C@H]4CCOC4)c3n2)CC1 [Tanzisertib] + CCNC(=O)c1noc(-c2cc(C(C)C)c(O)cc2O)c1-c1ccc(CN2CCOCC2)cc1 [Luminespib] (partner 0.01 µM)
Procedure, shortened: as §1

Cell Line	relative viability ([1]; first compound 0.08 µM)	relative viability ([1]; first compound 0.8 µM)	relative viability ([1]; first compound 2.53 µM)	relative viability ([1]; first compound 8 µM)	relative viability ([2]; first compound 0.04 µM)	relative viability ([2]; first compound 0.1265 µM)	relative viability ([2]; first compound 0.4 µM)	relative viability ([2]; first compound 1.265 µM)	relative viability ([2]; first compound 4 µM)	relative viability (Tanzisertib + Bortezomib; first compound 0.08 µM)	relative viability (Tanzisertib + Bortezomib; first compound 0.253 µM)	relative viability (Tanzisertib + Bortezomib; first compound 0.8 µM)	relative viability (Tanzisertib + Bortezomib; first compound 2.53 µM)	relative viability (Tanzisertib + Bortezomib; first compound 8 µM)	relative viability (Tanzisertib + Luminespib; first compound 0.08 µM)	relative viability (Tanzisertib + Luminespib; first compound 0.253 µM)	relative viability (Tanzisertib + Luminespib; first compound 0.8 µM)	relative viability (Tanzisertib + Luminespib; first compound 2.53 µM)	relative viability (Tanzisertib + Luminespib; first compound 8 µM)
NCI-H1355	0.906	0.938	1.05	0.923	1.01	1.02	1.09	1.1	0.924	1.1	1.34	1.23	1.23	1.34	0.77	0.697	0.805	0.725	0.628
HCC-78	0.532	0.507	0.602	0.536	0.626	0.573	0.623	0.771	0.693	0.485	0.436	0.548	0.416	0.62	–	–	–	–	–
EBC-1	0.116	0.111	0.0919	0.135	0.0976	0.0967	0.0934	0.0803	0.092	0.638	0.609	0.503	0.632	0.374	–	–	–	–	–
NCI-H2170	0.897	0.974	1	1.01	1.02	1	0.936	0.922	0.937	–	–	–	–	–	0.857	0.739	0.633	0.684	0.78
NCI-H522	–	–	–	–	–	–	–	–	–	–	–	–	–	–	1.38	1.27	0.966	1.16	1.17
NCI-H1299	1.1	1.08	1.07	1.08	1.09	1.07	0.985	0.951	0.886	1.03	1.02	1.07	1.08	1.13	–	–	–	–	–
NCI-H1395	0.982	0.821	1.15	1.04	1.07	1.14	1.06	0.995	0.909	–	–	–	–	–	0.786	0.525	0.632	0.717	0.547
NCI-H1944	0.845	0.884	0.997	0.839	0.98	0.975	0.985	0.822	0.557	–	–	–	–	–	0.858	0.84	0.749	0.658	0.73
Calu-6	0.951	0.912	0.781	0.914	0.981	0.973	0.878	0.807	0.742	1.02	0.993	1.03	1.06	1.05	–	–	–	–	–
NCI-H1703	0.389	0.355	0.349	0.348	0.409	0.274	0.333	–	0.324	0.328	0.326	0.293	0.377	0.248	–	–	–	–	–
NCI-H2342	0.899	1.04	1.21	1.29	1.09	1.22	1.01	1.21	0.933	–	–	–	–	–	0.688	0.828	0.975	0.759	0.888
NCI-H1792	–	–	–	–	–	–	–	–	–	0.98	1.08	0.937	0.882	0.982	0.413	0.402	0.447	0.448	0.344
NCI-H1623	0.891	0.702	1.03	0.924	0.969	0.859	0.992	0.655	1.07	–	–	–	–	–	0.617	0.443	0.484	0.502	0.624
HCC-366	0.95	0.946	0.905	1.03	0.987	0.926	0.936	–	1.07	1.08	1.03	1.1	0.995	1.01	–	–	–	–	–
HCC-44	–	–	–	–	–	–	–	–	–	0.934	0.938	0.912	0.936	0.999	1.14	1.12	1.09	1.07	1.13
SW 900	0.899	1.01	0.856	1.01	1.1	0.972	0.867	0.86	0.762	–	–	–	–	–	0.169	0.188	0.151	0.207	0.168
LK-2	1.05	1.27	1.03	1.42	1.32	–	1.49	–	1.46	–	–	–	–	–	0.224	0.187	0.191	0.192	0.181
SK-MES-1	0.85	0.855	1.05	1	0.849	1.07	0.847	0.785	0.78	–	–	–	–	–	0.718	0.692	0.698	0.75	0.499
NCI-H1793	0.619	0.659	0.72	0.654	0.692	0.829	0.946	–	0.83	–	–	–	–	–	0.174	0.216	0.2	0.165	0.216
IA-LM	1.09	1.37	1.19	1.26	1.28	1.33	1.43	1.2	1.08	0.925	0.803	0.777	0.867	0.977	–	–	–	–	–
A549	0.932	0.979	1.03	1.01	1.09	0.98	1.07	0.776	0.515	–	–	–	–	–	–	–	–	–	–
NCI-H358	0.551	0.672	0.727	0.69	0.675	0.688	0.651	0.662	0.566	–	–	–	–	–	0.302	0.282	0.5	0.29	0.318
